# Assay results reported in PubChem BioAssay (NCI).
#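 GI50 = concentration required for 50% inhibition of growth. At the TGI there is no net growth.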
# Tests used:
# Test in all cases: DTP human tumour cell line panel, 384-well format
# SNB-75 CNS = tested on: SNB-75 CNS
# MDA-MB-231 breast = tested on: MDA-MB-231 breast
# UACC-62 melanoma = tested on: UACC-62 melanoma
# SF-268 CNS = tested on: SF-268 CNS
# M14 melanoma = tested on: M14 melanoma
# CAKI-1 renal = tested on: CAKI-1 renal
# HL-60(TB) leukemia = tested on: HL-60(TB) leukemia
# NCI-H23 lung = tested on: NCI-H23 lung
# DU-145 prostate = tested on: DU-145 prostate
# 786-0 renal = tested on: 786-0 renal
# A498 renal = tested on: A498 renal
# OVCAR-5 ovarian = tested on: OVCAR-5 ovarian
# SR leukemia = tested on: SR leukemia
# CCRF-CEM leukemia = tested on: CCRF-CEM leukemia
# SK-MEL-5 melanoma = tested on: SK-MEL-5 melanoma
# NCI-H460 NSCLC = tested on: NCI-H460 NSCLC
# RXF 393 renal = tested on: RXF 393 renal
# K-562 leukemia = tested on: K-562 leukemia
# SF-295 CNS = tested on: SF-295 CNS
# IGROV1 ovarian = tested on: IGROV1 ovarian
# COLO 205 colon = tested on: COLO 205 colon
# NCI-H322M lung = tested on: NCI-H322M lung
# TK-10 renal = tested on: TK-10 renal
# SF-539 CNS = tested on: SF-539 CNS
# PC-3 prostate = tested on: PC-3 prostate
# NCI-H226 lung = tested on: NCI-H226 lung
# NCI/ADR-RES ovarian = tested on: NCI/ADR-RES ovarian
# MCF7 breast = tested on: MCF7 breast
# SK-MEL-28 melanoma = tested on: SK-MEL-28 melanoma
smiles,measurement,setting,value
CN[C@@H](C)C(=O)N[C@H](C(=O)N1CCC[C@H]1C(=O)Nc1snnc1-c1ccccc1)C1CCCCC1,TGI,SNB-75 CNS,> 100 µM
same,GI50,MDA-MB-231 breast,97.9 nM
same,TGI,MDA-MB-231 breast,2510 nM
same,GI50,UACC-62 melanoma,30.1 µM
same,TGI,UACC-62 melanoma,91.5 µM
same,GI50,SF-268 CNS,> 100 µM
same,TGI,SF-268 CNS,> 100 µM
same,GI50,M14 melanoma,28.2 µM
same,TGI,M14 melanoma,72.7 µM
same,GI50,CAKI-1 renal,52.1 µM
same,TGI,CAKI-1 renal,> 100 µM
same,GI50,HL-60(TB) leukemia,412 nM
same,TGI,HL-60(TB) leukemia,15.5 µM
same,GI50,NCI-H23 lung,14.2 µM
same,TGI,NCI-H23 lung,> 100 µM
same,GI50,DU-145 prostate,49.9 µM
same,TGI,DU-145 prostate,> 100 µM
same,GI50,786-0 renal,31.1 µM
same,TGI,786-0 renal,> 100 µM
same,GI50,A498 renal,26.4 µM
same,TGI,A498 renal,74.6 µM
same,GI50,OVCAR-5 ovarian,59.1 µM
same,TGI,OVCAR-5 ovarian,> 100 µM
same,GI50,SR leukemia,13.5 µM
same,TGI,SR leukemia,33.6 µM
same,GI50,CCRF-CEM leukemia,10.9 µM
same,TGI,CCRF-CEM leukemia,32.2 µM
same,GI50,SK-MEL-5 melanoma,845 nM
same,TGI,SK-MEL-5 melanoma,18.1 µM
same,GI50,NCI-H460 NSCLC,38.7 µM
same,TGI,NCI-H460 NSCLC,> 100 µM
same,GI50,RXF 393 renal,444 nM
same,TGI,RXF 393 renal,23.8 µM
same,GI50,K-562 leukemia,19.1 µM
same,TGI,K-562 leukemia,35.3 µM
same,GI50,SF-295 CNS,64 µM
same,TGI,SF-295 CNS,> 100 µM
same,GI50,IGROV1 ovarian,64.5 µM
same,TGI,IGROV1 ovarian,> 100 µM
same,GI50,COLO 205 colon,34.5 µM
same,TGI,COLO 205 colon,> 100 µM
same,GI50,NCI-H322M lung,> 100 µM
same,TGI,NCI-H322M lung,> 100 µM
same,GI50,TK-10 renal,18.6 µM
same,TGI,TK-10 renal,46.2 µM
same,GI50,SF-539 CNS,40.1 µM
same,TGI,SF-539 CNS,> 100 µM
same,GI50,PC-3 prostate,45.6 µM
same,TGI,PC-3 prostate,> 100 µM
same,GI50,NCI-H226 lung,70.7 µM
same,TGI,NCI-H226 lung,> 100 µM
same,GI50,NCI/ADR-RES ovarian,5.89 µM
same,TGI,NCI/ADR-RES ovarian,45.2 µM
same,GI50,MCF7 breast,31.7 µM
same,TGI,MCF7 breast,> 100 µM
same,GI50,SK-MEL-28 melanoma,22.7 µM
same,TGI,SK-MEL-28 melanoma,64.4 µM
